Measurements taken from patent US8318792B2, “Therapeutic agent for amyotrophic lateral sclerosis” (Nippon Medical School Foundation, priority 2006, dated 2012).

Assays:
[1] = test system: neurotoxin in cerebrospinal fluid from ALS patients; details: in vitro; Non-Patent Document 3; cited from earlier work
[2] = test system: transgenic mouse which expresses human mutated SOD1 gene; details: Non-Patent Document 9, cited from earlier work
G1H-G93A transgenic mice = experiment: Clinical symptomatological evaluation (day of onset, survival period, disease period, stage periods); assay type: in vivo, mouse
Procedure: 1) The procedure of concentration adjustment, and the amount and the procedure of administration of the compound (a) were as described below. As a base, 0.5% methylcellulose is prepared. 5 mg of the compound (a) is pulverized in an agate mortar, and then a small amount of 0.5% methylcellulose is added to form a complete suspension. Subsequently, a small amount of 0.5% methylcellulose is added gradually, so that finally 5 mg of the compound (a) is suspended in 10 mL of 0.5% methylcellulose. A sample of 5 mg of compound (a)/10 mL of 0.5% methylcellulose (5 mg/10 mL) was prepared by the above-described procedure, and thus the compound (a) was orally administered once a day in a dose of 5 mg per kg of the mouse body weight (5 mg/kg).
As the experimental animal, male transgenic mice over-expressing a high copy number (25 copies) of mutated human SOD1 gene with a G93A point mutation, i.e., B6SJL-TgN [SOD1-G93A]1Gur (G1H-G93A transgenic mice, JR2726; Hemizygote) (Gurney M E, et al., Science, 264, 1772-1775, 1994), were purchased from Jackson Laboratory (Bar Harbor, USA) and used. At the same time, wild-type male mice from the same litter, B6SJL-TgN[SOD1-G93A]1Gur (Wild-type), were also purchased from Jackson Laboratory and used.
The mice were subjected to a clinical symptomatological evaluation everyday. The clinical symptomatological evaluation was performed from one week after the arrival from Jackson Laboratory. […] The day of onset, the survival period and the disease period were indicated by the number of days. In regard to the indication of the number of days of the disease period, one day (one disease day) corresponds to within 24 hours from the onset (the “onset” is determined by the observation of the clinical symptomatological evaluation stage 1), and two days (two disease days) corresponds to more than 24 hours after and within 48 hours from the onset. Subsequent disease days after the onset were determined in the same manner.
The mice were divided into seven experimental groups, to which a placebo, the compound (a), compound (b), compound (c) or allopurinol was administered. That is, the seven groups consist of: an experimental group administered with placebo; a treatment experimental group administered with compound (a) before onset; a treatment experimental group administered with compound (a) after onset; a treatment experimental group administered with compound (b) before onset; a treatment experimental group administered with compound (c) before onset; a treatment experimental group administered with compound (c) after onset; and a treatment group administered with allopurinol before onset. Details of the respective groups will be described in the following.
Ten G1H-G93A transgenic mice were used. From the 80th day after birth, 5 mg/kg of the compound (a) was orally administered everyday. […]
Ten G1H-G93A transgenic mice were used. From the 80th day after birth, 5 mg/kg of the compound (b) was orally administered everyday.
Ten G1H-G93A transgenic mice were used. From the 80th day after birth, 5 mg/kg of the compound (c) was orally administered everyday. […]
Ten G1H-G93A transgenic mice were used. From the 80th day after birth, 5 mg/kg of allopurinol was orally administered everyday.
In regard to the results of the clinical symptomatological evaluation, the day of onset, the survival period (days taken to show quadriplegia and to reach the moribund state), the disease period (days taken to show quadriplegia and to reach the moribund state, from the day of onset), and the time periods for the respective stages of the clinical symptomatological evaluation, were indicated by the average±standard deviation. In regard to the results of the exercise tolerance test, the score values of the respective exercise tolerance tests, including the extension reflex test, inclined plane test, footprint test, rotarod test and beam balance test, were indicated by the average±standard deviation. […]

[3] = 5 mg/kg oral daily from 80th day after birth (before onset), Mann-Whitney's U test, log-rank test
[4] = 5 mg/kg oral once a day from 80th day after birth (before onset), average±SD

| Molecule | action on the neurotoxin in cerebrospinal fluid from ALS patients [1] | effect on life span in the transgenic mouse [2] | ALS treating effect ([2]; intraperitoneal administration in an amount of 10 mg/kg) | time periods for the respective stages in comparison to placebo group (G1H-G93A transgenic mice; 5 mg/kg oral daily from 80th day after birth (before onset), Mann-Whitney's U test) | disease period extending effect in comparison to placebo group (G1H-G93A transgenic mice; [3]) | onset delaying effect in comparison to placebo group (G1H-G93A transgenic mice; [3]) | survival period extending effect in comparison to placebo group (G1H-G93A transgenic mice; [3]) | day of onset (G1H-G93A transgenic mice; [4]) [days] | disease period (G1H-G93A transgenic mice; [4]) [days] | survival period (G1H-G93A transgenic mice; [4]) [days] | time period of clinical symptomatological stage 1 (G1H-G93A transgenic mice; [4]) [days] | time period of clinical symptomatological stage 2 (G1H-G93A transgenic mice; [4]) [days] | time period of clinical symptomatological stage 3 (G1H-G93A transgenic mice; [4]) [days] | time period of clinical symptomatological stage 4 (G1H-G93A transgenic mice; [4]) [days] | time period of clinical symptomatological stage 5 (G1H-G93A transgenic mice; [4]) [days] |
| --- | --- | --- | --- | --- | --- | --- | --- | --- | --- | --- | --- | --- | --- | --- | --- |
| vitamin E | counteract the neurotoxin |  |  |  |  |  |  |  |  |  |  |  |  |  |  |
| [O-][n+]1cccc(/C(Cl)=N/OC[C@H](O)CN2CCCCC2)c1 [arimoclomol] |  | prolongation of life | effective |  |  |  |  |  |  |  |  |  |  |  |  |
| Oc1ncnc2[nH]ncc12 [allopurinol, reference compound] | counteract the neurotoxin |  |  | not found to have the extended period of respective stages with significant differences | did not lead to the onset delaying effect, survival period extending effect or disease period extending effect | did not result in significant delaying of the day of onset | did not lead to the onset delaying effect, survival period extending effect or disease period extending effect | 102.2 ± 4.4 | 21.0 ± 3.6 | 122.2 ± 1.3 | 6.8±1.1 | 5.4±1.3 | 4.4±1.2 | 2.9±0.7 | 1.5±0.5 |
